Measured values reported in publication PMC10819521 (Pharmaceutics, 2024).
Values joined by “and” are separate entries in the source; they are usually repeats but may differ in a detail not shown here. Equal values may be shown once.

Columns and labels:
[1] = system: voltage-gated calcium channels; test: Calcium channel blockade (FLIPR Calcium 6 indicator, SH-SY5Y cells); type: cell-based, human; conditions: compounds at 10 µM, KCl/CaCl2 stimulation, n.i. = no inhibition
Experimental: Calcium channel blockade. Evaluation of the calcium channel blockade of compounds 4a–l was performed using the FLIPR Calcium 6 indicator according to a previously established protocol. Briefly, human neuroblastoma cell line SH-SY5Y seeded out on 96-well plate were treated with fluorescent calcium indicator (FLIPR Calcium 6, Molecular Devices). Cells were incubated with indicator for 2 h at 37 °C, facilitating internalization of the indicator. Subsequently, cells were exposed to nimodipine (10 µM, used as reference inhibitor), DMSO (0.1%, used as vehicle control) or our compounds of interest (10 µM) for 10 min also at 37 °C. Following that, cell fluorescence was recorded using a microplate reader (λEx = 485 nm; λEm = 525 nm). Baseline fluorescence was recorded for 5 s. Afterwards, cells were stimulated by the addition of the solution of KCl and CaCl2 (90 and 5 mM, respectively) in order to induce the opening of voltage-gated calcium channels. An increase in fluorescence of calcium indicator after inducing calcium flux was recorded for another 30 s. Data were collected from three independent experiments, with eight technical replicates per experiment. Fluorescence intensity values were normalized to the baseline recorded before the induction of calcium flux. The percentage of inhibition was calculated as a reduction of normalized calcium flux in comparison with the DMSO vehicle control. Outliers were detected using the Grubbs test, and any outlying values were excluded from further analysis.
Calcium channel blockade. The Ca^2+ channel blocking capacity of compounds 4a–l and nimodipine, used as a standard at a concentration of 10 μM, was evaluated according to an established methodology.

[2] = Oxygen radical absorbance capacity assay (ORAC-FL); conditions: ORAC-FL method; mean ± SEM
Experimental: Oxygen radical absorbance capacity assay. The evaluation of the antioxidant activity of compounds 4a–l was carried out using the previously established ORAC-FL method, and detailed information is provided in the supporting information.
Antioxidant assay. The antioxidant assessment was conducted by evaluating the compounds 4a–l through the determination of oxygen radical absorbance capacity (ORAC) using the ORAC-Fluorescein (ORAC-FL) method […]
Oxygen radical absorbance capacity assay.
ORAC-FL method, using fluorescein as a fluorescent probe. Shortly, fluorescein and the antioxidants
2,2'-Azobis(amidinopropane)
(emission wavelength) every minute for 1 hour. […]

Nrf2-ARE = test: Nrf2 transcriptional activation, cell-based luciferase assay; conditions: 24 h; for EC50: CD = concentration required to double the specific activity of the luciferase reporter, read-out: Nrf2 Induction Potencies CD
Experimental: Nrf2 transcriptional activation potencies. The assessment of the Nrf2 transcriptional activation potencies of compounds 4a–l was carried out using the previously described method, and detailed information is provided in the supporting information.
Nrf2 transcriptional activation potencies of compounds 4a–l. […] AREc32 cells were exposed to escalating concentrations of each compound (1, 5, 10, 25, 50, 100, 125, and 150 μM) for 24 h to reach the cytotoxic threshold, followed by measurements of luciferase activity. Melatonin was used as a positive control.
4e H Cl H n.i. 76 n.i. […]
Nrf2 transcriptional activation potencies. The stable NRF2/ARE luciferase reporter HEK293 cell line
(Promega) according to the manufacturer's instructions. To assess cellular viability, the stable

[3] = target: T1, Human recombinant cathepsin S (Homo sapiens, UniProt P25774); test: Cathepsin S assay (fluorogenic substrate Z-Phe-Arg-AMC); type: biochemical; conditions: for remaining activity at 50 µM: 50 µM inhibitor, 60 min, 100% = no inhibitor, n.i. = residual activity ≥ 95%, read-out: Percentage residual activity of human cathepsin S; for Ki: Ki ± SEM, n.i. = no inhibition, residual activity ≥ 95% at 50 μM, read-out: CatS Ki
T1 construct: purchased Enzo Life Sciences
T1 sequence (P25774 115-331): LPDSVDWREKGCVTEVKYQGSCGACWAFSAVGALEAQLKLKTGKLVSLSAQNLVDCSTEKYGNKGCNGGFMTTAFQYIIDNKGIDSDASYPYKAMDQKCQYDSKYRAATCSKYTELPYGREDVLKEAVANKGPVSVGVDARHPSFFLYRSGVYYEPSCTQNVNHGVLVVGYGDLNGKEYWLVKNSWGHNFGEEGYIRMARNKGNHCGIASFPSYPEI
Experimental: (§1) Cathepsin assays. Assays with human cathepsins B, S, L, and K were carried out as described previously. Stock solutions of substrates and inhibitors were prepared in DMSO. The final DMSO concentration was 2%. All test compounds were investigated in duplicate at a concentration of 50 µM to determine residual activities based on endpoints of substrate consumption after 60 min. Ki values were obtained in duplicate measurements with six different inhibitor concentrations, and 60-min-progress curves were analyzed by linear regression. IC50 values were obtained by non-linear regression using the equation vi = v0/(1 + ([I]/IC50), where vi is the product formation rate at different inhibitor concentrations, v0 is the uninhibited product formation rate, [I] is the inhibitor concentration, and IC50 is the half-maximal inhibitory concentration. IC50 values are transformed to Ki values using the Cheng-Prusoff equation.
Human recombinant cathepsin S (Enzo Life Sciences) was assayed fluorometrically (FLUOstar Optima plate reader, BMG Labtech) at 25 °C with an emission wavelength of 360 nm and an absorption wavelength of 460 nm. The assay buffer was 100 mM sodium phosphate buffer pH 6.0, 100 mM NaCl, 5 mM EDTA, 0.01% Brij 35. For activation, an enzyme stock solution was diluted with assay buffer containing 5 mM DTT and incubated for 60 min at 37 °C.
(§2) Cathepsins inhibition. Compounds 4a–l were then evaluated for their ability to inhibit Cat S. Besides Cat S, the set of assays included three related human cathepsins, B, L, and K, all members of the class of lysosomal cysteine proteases (see Table S1 in the Supporting Information). Following reported procedures, [39, 40, 41] percentage or residual activities were determined using chromogenic or fluorogenic peptide substrates, with endpoints measured after 60 min of substrate consumption. To determine Ki values, progress curves were followed over 60 min and analyzed by linear regression. Ki values were then obtained by non-linear regression.

[4] = target: T2, Human isolated cathepsin B (Homo sapiens, UniProt P07858); test: Cathepsin B assay (chromogenic substrate Z-Arg-Arg-pNA); type: biochemical; conditions: 50 µM inhibitor, 60 min, 100% = no inhibitor, n.i. = residual activity ≥ 95%; for remaining activity at 50 µM: read-out: Percentage residual activity of human cathepsin B
T2 construct: Human isolated cathepsin B (Calbiochem) was assayed spectrophotometrically; purchased Calbiochem
Experimental: as §1
(§3) Human isolated cathepsin B (Calbiochem) was assayed spectrophotometrically (Cary 50 Bio, Varian) at 405 nm and 37 °C. Assay buffer was 100 mM sodium phosphate buffer pH 6.0, 100 mM NaCl, 5 mM EDTA, 0.01% Brij 35. For activation, an enzyme stock solution was diluted with assay buffer containing 5 mM DTT and incubated for 30 min at 37 °C. The final concentration of the chromogenic substrate Z-Arg-Arg-pNA was 500 µM (0.45 × Km).
as §2

[5] = target: T3, Human isolated cathepsin L (Homo sapiens, UniProt P07711); test: Cathepsin L assay (chromogenic substrate Z-Phe-Arg-pNA); type: biochemical; conditions: 50 µM inhibitor, 60 min, 100% = no inhibitor, n.i. = residual activity ≥ 95%; for remaining activity at 50 µM: read-out: Percentage residual activity of human cathepsin L
T3 construct: Human isolated cathepsin L (Enzo Life Sciences) was assayed spectrophotometrically; purchased Enzo Life Sciences
T3 sequence (P07711 114-333): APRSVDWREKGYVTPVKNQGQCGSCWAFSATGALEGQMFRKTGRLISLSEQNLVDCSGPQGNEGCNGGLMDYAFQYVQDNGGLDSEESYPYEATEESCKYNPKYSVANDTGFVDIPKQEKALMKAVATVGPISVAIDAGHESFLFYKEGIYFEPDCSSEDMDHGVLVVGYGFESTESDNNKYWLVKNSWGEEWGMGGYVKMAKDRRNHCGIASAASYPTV
Experimental: as §1
as §3, with “L (Enzo Life Sciences)” for “B (Calbiochem)”, “The assay” for “Assay”, “EDTA, and” for “EDTA,”, “Z-Phe-Arg-pNA” for “Z-Arg-Arg-pNA”, “100” for “500”, “(5.88” for “(0.45”
as §2

[6] = target: T4, Human recombinant cathepsin K (Homo sapiens, UniProt P43235); test: Cathepsin K assay (substrate Z-Leu-Arg-AMC); type: biochemical; conditions: 50 µM inhibitor, 60 min, 100% = no inhibitor, n.i. = residual activity ≥ 95%; for remaining activity at 50 µM: read-out: Percentage residual activity of human cathepsin K
T4 construct: purchased Enzo Life Sciences
T4 sequence (P43235 115-329): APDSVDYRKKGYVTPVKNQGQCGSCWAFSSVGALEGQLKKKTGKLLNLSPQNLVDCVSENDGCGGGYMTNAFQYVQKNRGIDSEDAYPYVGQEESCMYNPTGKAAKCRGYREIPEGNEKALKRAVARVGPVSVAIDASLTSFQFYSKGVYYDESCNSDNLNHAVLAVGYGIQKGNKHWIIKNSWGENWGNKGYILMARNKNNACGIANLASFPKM
Experimental: as §1
Human recombinant cathepsin K (Enzo Life Sciences) was assayed fluorometrically (FLUOstar Optima plate reader, BMG Labtech) with an emission wavelength of 360 nm and an absorption wavelength of 460 nm. The assay buffer was 100 mM sodium citrate pH 5.0, 100 mM NaCl, 1 mM EDTA, 0.01% CHAPS. For activation, an enzyme stock solution was diluted with assay buffer containing 5 mM DTT and incubated for 30 min at 37 °C. The final concentration of the chromogenic substrate Z-Leu-Arg-AMC was 40 µM (13.33 × Km).
as §2

remaining activity at 50 µM [3] [%]	Percentage residual activity of human cathepsin B [4]	Percentage residual activity of human cathepsin L [5]	Percentage residual activity of human cathepsin K [6]	remaining activity at 50 µM [5] [%]	remaining activity at 50 µM [6] [%]	remaining activity at 50 µM [4] [%]	Ki [3] [µM]	EC50 (Nrf2-ARE) [µM]	SMILES	Calcium Channel Blockade (%) [1]	ORAC [2]	Induction of the Nrf2 pathway (luciferase activity) (Nrf2-ARE; concentrations up to 150 μM, versus non-treated cells)
68	n.i.	n.i.	n.i.	–	–	–	–	–	C#CCNC(=O)C1=C(C)NC(C)=C(C(=O)NCC#C)C1c1ccccc1 [4a, 2,6-Dimethyl-4-phenyl-N3,N5-bis(prop-2-yn-1-yl)-1,4-dihydropyridine-3,5-dicarboxamide]	12%	0.86 Trolox equivalents and 0.86 ± 0.05 Trolox equivalents	no significant activity
77	n.i.	–	–	90	62	–	–	–	C#CCNC(=O)C1=C(C)NC(C)=C(C(=O)NCC#C)C1c1cccc2nonc12 [4d, 4-(2,1,3-Benzoxadiazol-4-yl)-2,6-dimethyl-N3,N5-bis(prop-2-yn-1-yl)-1,4-dihydropyridine-3,5-dicarboxamide]	10%	1.23 ± 0.23 Trolox equivalents	–
76	n.i.	n.i.	–	–	85	–	–	–	C#CCNC(=O)C1=C(C)NC(C)=C(C(=O)NCC#C)C1c1ccccc1Cl [4e, 4-(2-Chlorophenyl)-2,6-dimethyl-N3,N5-bis(prop-2-yn-1-yl)-1,4-dihydropyridine-3,5-dicarboxamide]	n.i.	1.15 ± 0.02 Trolox equivalents	–
67	–	–	n.i.	86	–	71	–	–	C#CCNC(=O)C1=C(C)NC(C)=C(C(=O)NCC#C)C1c1ccccc1OC [4f, 4-(2-Methoxyphenyl)-2,6-dimethyl-N3,N5-bis(prop-2-yn-1-yl)-1,4-dihydropyridine-3,5-dicarboxamide]	19%	1.34 ± 0.20 Trolox equivalents	–
70	–	n.i.	–	–	90	88	–	–	C#CCNC(=O)C1=C(C)NC(C)=C(C(=O)NCC#C)C1c1ccccc1Br [4g, 4-(2-Bromophenyl)-2,6-dimethyl-N3,N5-bis(prop-2-yn-1-yl)-1,4-dihydropyridine-3,5-dicarboxamide]	n.i.	1.43 ± 0.03 Trolox equivalents	–
54	–	–	n.i.	87	–	71	55.3 ± 7.4	–	C#CCNC(=O)C1=C(C)NC(C)=C(C(=O)NCC#C)C1c1cccc(Br)c1 [4h, 4-(3-Bromophenyl)-2,6-dimethyl-N3,N5-bis(prop-2-yn-1-yl)-1,4-dihydropyridine-3,5-dicarboxamide]	7%	1.28 ± 0.05 Trolox equivalents	–
58	–	–	–	91	65	87	69.3 ± 5.2	96 ± 6.1	C#CCN(C)C(=O)C1=C(C)NC(C)=C(C(=O)N(C)CC#C)C1c1ccccc1Cl [4i, 4-(2-Chlorophenyl)-N2,N3,5,6-tetramethyl-N3,N5-bis(prop-2-yn-1-yl)-1,4-dihydropyridine-3,5-dicarboxamide]	11%	1.93 Trolox equivalents and 1.93 ± 0.08 Trolox equivalents	–
69	–	–	–	87	81	90	–	77.2 ± 7.1	C#CCN(C)C(=O)C1=C(C)NC(C)=C(C(=O)N(C)CC#C)C1c1cccc(Cl)c1Cl [4j, 4-(2,3-Dichlorophenyl)-N2,N3,5,6-tetramethyl-N3,N5-bis(prop-2-yn-1-yl)-1,4-dihydropyridine-3,5-dicarboxamide]	12%	1.82 Trolox equivalents and 1.82 ± 0.05 Trolox equivalents	–
–	–	–	–	–	–	–	–	66.4 ± 16.4	COc1ccc2[nH]cc(CCNC(C)=O)c2c1 [melatonin, reference compound]	–	–	–
